Data on 20 compounds can be found in ChEMBL document CHEMBL5257130, “Methyl and Fluorine Effects in Novel Orally Bioavailable Keap1-Nrf2 PPI Inhibitor” (ACS Med Chem Lett, 2023).

As a reminder, the IC50 is the point on the concentration scale where inhibition reaches its midpoint. In general, Papp refers to a coefficient for how fast a substance crosses the barrier. Usually solubility stands for the concentration that dissolves in the medium under given conditions. Low values mean a poorly soluble substance, high ones a readily soluble substance. What is called Tmax is the time at which the peak concentration occurs. Usually half-life stands for how long it takes for the measured level to halve. A lower half-life goes with fast loss. The term MRT denotes a mean duration of stay, worked out from the concentration-time curve. In general, Vd refers to the apparent volume that relates the amount in the body to the concentration in plasma or blood. What is called clearance is a measure of how efficiently the substance is removed, as volume per time. Broadly, the AUC is concentration integrated over time. High values mean high exposure, low ones low exposure.

Data set [1] deals with Keap1/Nrf2 (Homo sapiens, UniProt Q14145). The data set can be described thus: Inhibition of Nrf2-Keap1 Kelch domain (unknown origin) protein-protein interaction in presence of biotin labeled 16mer ETGE peptide AFFAQLQLDEETGEFL
In kind it is protein assay.

Data set [2] is described as follows: Apparent permeability in human Caco-2 cells at 25 micromol/L incubated for 2 hrs by LC/MS/MS analysis. In kind it is ADME, cell-based. Conditions: dose 25 µmol/L. For orientation: Passage across Caco-2 layers is used to estimate intestinal permeability.
Data set [3] in a line: cells. Conditions: Homo sapiens, HRMC, 18 h.
Description: Upregulation of HO-1 expression in human HRMC cells incubated for 18 hrs by ELISA assay
Data set [4] in a line: Solubility of compound in FASSIF at pH 6.5 incubated for 4 hrs by LC/MS analysis. The data set is classed as ADME.
Data set [5] in a line: Metabolic stability in human liver microsomes assessed as parent compound remaining at 5 uM measured after 60 mins. In kind it is ADME, Microsome. The conditions noted are these: read-out: Stability. (Microsomes from liver hold many membrane-bound enzymes, among them those of drug oxidation.)
Data set [6] can be described thus: Metabolic stability in rat liver microsomes assessed as parent compound remaining at 5 uM measured after 60 mins. In kind it is ADME, Microsome. Conditions: read-out: Stability.
Data set [7] can be described thus: Solubility of compound in FeSSIF at pH 5 incubated for 4 hrs by LC/MS analysis. The data set is classed as ADME.
In data set [8] the target is Kelch-like ECH-associated protein 1 (Homo sapiens) (UniProt Q14145).
Description: Binding affinity to Keap1 Kelch domain (unknown origin) assessed as change in free energy by isothermal titration calorimetry assay
Data set [9] has the same target. The data set can be described thus: Binding affinity to Keap1 Kelch domain (unknown origin) assessed as change in entropy by isothermal titration calorimetry assay.
For data set [10] the target is unchanged. This is another data set of the same source.
Description: Binding affinity to Keap1 Kelch domain (unknown origin) assessed as change in enthalpy by isothermal titration calorimetry assay
A short description of data set [11]: Tmax in CD(SD) rat at 3 mg/kg, po measured upto 25 hrs. In kind it is ADME, organism-based. Conditions: in vivo.
Data set [12] can be described thus: Half life in CD(SD) rat at 1 mg/kg, iv measured upto 25 hrs. In kind it is ADME, organism-based. Conditions: in vivo.
Data set [13] is described as follows: Oral bioavailability in CD(SD) rat at 3 mg/kg measured upto 25 hrs. The data set is classed as ADME, organism-based. Conditions: in vivo.
The nature of data set [14]: MRT in CD(SD) rat at 3 mg/kg, po measured upto 25 hrs. The data set is classed as ADME, organism-based. The conditions noted are these: in vivo.
Data set [15] can be described thus: Volume of distribution in CD(SD) rat at 1 mg/kg, iv measured upto 25 hrs. The data set is classed as ADME, organism-based. The conditions noted are these: in vivo.
The nature of data set [16]: Total clearance in CD(SD) rat at 1 mg/kg, iv measured upto 25 hrs. The data set is classed as ADME, organism-based. The conditions noted are these: in vivo.
Data set [17] concerns the target KEAP1/NRF2 (Rattus norvegicus) (UniProt O54968+P57790). Briefly: In vivo inhibition of Nrf2-Keap1 Kelch domain protein-protein interaction in po dosed Wistar rat kidney assessed as increase in HO-1 protein level incubated for 6 hrs by ELISA assay. The data set is classed as functional, organism-based. The conditions noted are these: dose 3-30 mg/kg. For orientation: In an ELISA, binding on a coated surface is turned into a signal by an enzyme label.

Data set [18] can be described thus: AUC in CD(SD) rat at 3 mg/kg, po measured upto 25 hrs. Further details: time < 25 hrs, dose 3 mg/kg, route po. The data set is classed as ADME, organism-based. The conditions noted are these: in vivo.
A short description of data set [19]: MRT in CD(SD) rat at 1 mg/kg, iv measured upto 25 hrs. The conditions noted are these: in vivo. In kind it is ADME, organism-based.
A short description of data set [20]: AUC in CD(SD) rat at 1 mg/kg, iv measured upto 25 hrs. In kind it is ADME, organism-based. Further details: time < 25 hrs, dose 1 mg/kg, route iv. Conditions: in vivo.

≈ marks a conversion by molar mass, not a printed value.

Keap1/Nrf2, sequence (Q16236 whole entry, the tested form may be a part): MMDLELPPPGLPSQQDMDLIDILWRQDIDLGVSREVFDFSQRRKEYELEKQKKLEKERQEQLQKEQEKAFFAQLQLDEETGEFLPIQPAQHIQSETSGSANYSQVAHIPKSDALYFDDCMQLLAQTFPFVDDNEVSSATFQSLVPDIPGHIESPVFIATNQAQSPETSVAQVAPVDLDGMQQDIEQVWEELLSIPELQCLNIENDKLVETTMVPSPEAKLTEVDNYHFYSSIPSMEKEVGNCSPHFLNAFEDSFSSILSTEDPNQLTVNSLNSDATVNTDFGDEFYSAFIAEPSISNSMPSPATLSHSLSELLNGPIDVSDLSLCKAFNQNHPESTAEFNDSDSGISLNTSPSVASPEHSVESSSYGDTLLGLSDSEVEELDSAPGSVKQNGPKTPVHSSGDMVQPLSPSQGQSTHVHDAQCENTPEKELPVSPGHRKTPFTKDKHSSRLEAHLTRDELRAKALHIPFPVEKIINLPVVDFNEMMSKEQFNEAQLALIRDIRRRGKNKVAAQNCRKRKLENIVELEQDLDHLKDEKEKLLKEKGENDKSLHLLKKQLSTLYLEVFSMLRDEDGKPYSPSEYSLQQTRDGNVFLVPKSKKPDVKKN
Keap1/Nrf2, sequence (Q14145 whole entry, the tested form may be a part): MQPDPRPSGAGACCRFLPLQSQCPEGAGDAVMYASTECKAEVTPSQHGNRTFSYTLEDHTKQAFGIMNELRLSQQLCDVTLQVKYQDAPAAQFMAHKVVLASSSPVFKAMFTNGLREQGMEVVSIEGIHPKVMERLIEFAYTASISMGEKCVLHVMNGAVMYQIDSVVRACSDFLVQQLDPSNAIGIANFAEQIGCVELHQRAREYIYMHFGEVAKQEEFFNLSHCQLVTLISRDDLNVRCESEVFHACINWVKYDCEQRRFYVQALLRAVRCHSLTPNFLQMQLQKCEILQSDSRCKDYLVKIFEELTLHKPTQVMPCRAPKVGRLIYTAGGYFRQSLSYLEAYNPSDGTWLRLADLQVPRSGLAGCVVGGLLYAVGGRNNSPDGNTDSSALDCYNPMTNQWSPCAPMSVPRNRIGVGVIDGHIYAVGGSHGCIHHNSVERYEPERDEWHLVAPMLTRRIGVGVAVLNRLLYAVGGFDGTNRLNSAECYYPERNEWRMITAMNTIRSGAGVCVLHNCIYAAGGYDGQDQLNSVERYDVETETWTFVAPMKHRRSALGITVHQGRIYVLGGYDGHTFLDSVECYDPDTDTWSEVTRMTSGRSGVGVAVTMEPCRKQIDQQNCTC
Kelch-like ECH-associated protein 1 (Homo sapiens), sequence (Q14145 whole entry, the tested form may be a part): as above

With `CC[C@@H](C(=O)O)[C@H](NC(=O)Cc1ccc2c(c1)CCCC2)c1ccc(C)cc1`, in data set [1], the IC50 worked out at 55 µM.
Regarding `Cc1ccc([C@@H](NC(=O)Cc2ccccc2)[C@@H](C)C(=O)O)cc1`, in data set [2], the Papp at 2 h, 25 µM came out at 2.3 ×10⁻⁶ cm/s. In data set [1], the half-inhibitory concentration (IC50) was determined as 67 µM.
For the compound `CO[C@H](C(=O)N[C@H](c1ccc(C)cc1)[C@@H](C)C(=O)O)c1ccccc1`, the Papp at 2 h, 25 µM in data set [2] came out at 3.4 ×10⁻⁶ cm/s. In addition, in data set [1], the IC50 is more than 100 µM.
The corresponding values for `Cc1ccc([C@@H](NC(=O)[C@H](O)c2ccccc2)[C@@H](C)C(=O)O)cc1` are 0.27 ×10⁻⁶ cm/s and more than 100 µM.
Turning to `Cc1ccc(C(NC(=O)Cc2ccc3c(c2)CCCC3)C(C)(C)C(=O)O)cc1` (stereo not given), the IC50 in [1] was determined as 17 µM.
The same measure, in the same setting: with `Cc1ccc([C@@H](CC(=O)O)NC(=O)Cc2ccc3c(c2)CCCC3)cc1` the figure was more than 100 µM.
Still for that read-out and setting: with `Cc1ccc(C(NC(=O)Cc2ccc3c(c2)CCCC3)C2(C(=O)O)CC2)cc1` (stereo not given) the figure was 54 µM.
As to `Cc1ccc([C@@H](NC(=O)[C@@H](F)c2ccccc2)[C@@H](C)C(=O)O)cc1`, in data set [2], the Papp at 2 h, 25 µM was 12 ×10⁻⁶ cm/s. The IC50 came out at 36 µM in data set [3] and 3.5 µM in data set [1].
As for `COc1ccc(S(=O)(=O)Nc2ccc(N3CCCCCC3)cc2C(=O)O)cc1`, the Papp at 2 h, 25 µM in data set [2] was found to be 13 ×10⁻⁶ cm/s. Also, the solubility at 4 h in data set [4] was not below 475 µM; in [7], 424 µM (≈ 172 µg/mL). Further, the IC50 in data set [1] worked out at 37 µM. Besides, the remaining at 1 h, 5 µM in [5] and in [6] was 0% each time.
Compound `Cc1ccc([C@H](CC(=O)O)NC(=O)Cc2ccc3c(c2)CCCC3)cc1` had a deltaG in [8] of -6.7 kcal/mol. Moreover, the -TdeltaS in [9] is -2.2 kcal/mol. Further, the IC50 in [1] is 39 µM. Besides, the deltaH in data set [10] was -4.5 kcal/mol.
For the compound `Cc1ccc([C@@H](NC(=O)[C@H](F)c2ccccc2)[C@@H](C)C(=O)O)cc1`, the Papp at 2 h, 25 µM in data set [2] amounted to 6.6 ×10⁻⁶ cm/s. The IC50 in data set [1] was 90 µM.
As for `CC[C@H](C(=O)O)[C@H](NC(=O)Cc1ccc2c(c1)CCCC2)c1ccc(C)cc1`, the IC50 in data set [1] stood at 99 µM.
For the compound `Cc1ccc([C@@H](NC(=O)Cc2ccc3c(c2)CCCC3)[C@H](C)C(=O)O)cc1`, the IC50 in [1] came out at 51 µM.
`Cc1ccc([C@@H](NC(=O)Cc2ccc3c(c2)CCCC3)[C@@H](C)C(=O)O)cc1`: the Papp at 2 h, 25 µM in [2] came out at 25 ×10⁻⁶ cm/s. The values for the concentration for half-maximal inhibition (IC50) in data set [3] and in [1] were 56 µM and 2.8 µM, respectively. The compound also had a deltaG in data set [8] of -8 kcal/mol. The -TdeltaS in data set [9] was -3.7 kcal/mol. Also, in data set [10], the deltaH is -4.3 kcal/mol.
Regarding `Cc1ccc(C(CC(=O)O)NC(=O)Cc2ccc3c(c2)CCCC3)cc1` (stereo not given), in [2], the apparent permeability (Papp) at 2 h, 25 µM came to 17 ×10⁻⁶ cm/s. Further, the solubility at 4 h was determined as 432 µM (≈ 152 µg/mL) in data set [4] and 469 µM (≈ 165 µg/mL) in [7]. The IC50 in data set [1] was 40 µM. The remaining at 1 h, 5 µM in data set [5] was found to be 85%; in [6], 95%.
On to `Cc1ccc([C@@H](NC(=O)[C@@H](O)c2ccccc2)[C@@H](C)C(=O)O)cc1`, for which the Papp at 2 h, 25 µM in data set [2] is 0.26 ×10⁻⁶ cm/s. In addition, in [1], the IC50 stood at 96 µM.
As to `Cc1ccc([C@@H](NC(=O)C(=O)c2ccccc2)[C@@H](C)C(=O)O)cc1`, the Papp at 2 h, 25 µM in [2] amounted to 1.7 ×10⁻⁶ cm/s. For the same compound, the IC50 in data set [1] was more than 100 µM.
`Cc1ccc([C@@H](NC(=O)C(F)(F)c2ccccc2)[C@@H](C)C(=O)O)cc1`: the Papp at 2 h, 25 µM in [2] is 15 ×10⁻⁶ cm/s. For the same compound, the results for the IC50 in [3] and in [1] were 66 µM and 8.9 µM, respectively.
For `Cc1ccc([C@@H](NC(=O)[C@@H](F)c2ccc3c(c2)CCCC3)[C@@H](C)C(=O)O)cc1`, the Tmax in data set [11] came to 1.3 h. Also, in data set [2], the apparent permeability coefficient (Papp) at 2 h, 25 µM turned out to be 33 ×10⁻⁶ cm/s. This compound also showed a half-life in data set [12] of 4.5 h. The IC50 in data set [3] turned out to be 2 µM; in [1], 0.089 µM. Further, the solubility at 4 h in data set [4] is not below 475 µM; in data set [7], 303 µM (≈ 116 µg/mL). Also, the bioavailability in data set [13] worked out at 136%. The results for the mean residence time MRT in [14] and in [19] were 10 h and 5.6 h, respectively. Also, the -TdeltaS in data set [9] was -1.2 kcal/mol. The compound also came in with a Vd in data set [15] of 0.18 L/kg. For the same compound, the clearance in [16] is 0.5 mL/min/kg. Further, the remaining at 1 h, 5 µM is 70% in data set [5] and 87% in [6]. For the same compound, in data set [17], the inhibition entry was “Dose-Dependent Effect”. Further, the AUC at 25 h was determined as 324 µM·h in data set [18] and 79 µM·h in [20].
On to `CO[C@@H](C(=O)N[C@H](c1ccc(C)cc1)[C@@H](C)C(=O)O)c1ccccc1`, for which the IC50 in data set [1] turned out to be 83 µM.
